Data taken from US20220095617A1, “PLANT GROWTH REGULATING AGENT” (IDEMITSU KOSAN CO.,LTD., priority 2019, published 2022).
“And” between values parts separate entries of the source, which are not always exact repeats. Equal values may be shown once. Read-outs that look alike come from different tables or passages of the source.

Key:
Format in all cases: in vivo
[1] = tested on: Carrot (US Harumakigosun carrot) seeds; experiment: Example 7: High-temperature stress Petri dish test (carrot seeds); details: for Germination rate, Increase rate: non-addition group = 100.0; for Germination rate, Average: seeds 55° C. hot water 20 minutes, 23° C. 7 days
Method: Carrot (US Harumakigosun carrot, The Yokohama Nursery Co., Ltd.) seeds were soaked in hot water at 55° C. for 20 minutes to perform high-temperature treatment. […] A group similarly soaked in distilled water was provided as a non-addition group. After the soaking treatment, the seeds were dried in air, and then 20 seeds were sown on each of shallow Petri dishes in which qualitative filter paper was placed. To the filter paper in each Petri dish, 3 mL of distilled water was uniformly added dropwise. […] For each group, three measurement results were obtained (N=3).

lettuce (Green Wave) [2] = experiment: Example 22: pH stress Petri dish test (lettuce); details: for Root length, Increase rate: non-addition group = 100.0
Cabbage (Okina) [3] = experiment: Example 10: High-temperature stress pot test (cabbage); details: for Fresh weight of above-ground part, Increase rate / Fresh weight of underground part, Increase rate: non-addition group = 100.0; for Fresh weight of above-ground part, Average / Fresh weight of underground part, Average: greenhouse 35° C., 30 days
Method: Cabbage (Okina, Takii & Co., Ltd.) was sown on a cell tray filled with seedling culture soil (manufactured by Nihon Hiryo Co., Ltd.; “Naebijin N100”). […] Cultivation was carried out in a greenhouse (average daytime temperature, 35° C.) for 30 days, and then the fresh weight of the above-ground part and the fresh weight of the underground part were evaluated. For each group, 15 to 20 measurement results were obtained (N=15 to 20).

Sphaerotheca cucurbitae = experiment: Example 20: Control effect against cucumber powdery mildew; details: 14 days
Method: […] cucumber (Hanjirofushinari, Takii & Co., Ltd.) in the two leaf stage, and foliar spraying of 15 ml each of dilutions of hesperidin prepared at final concentrations of 10 to 1000 ppm (using 0.01% Tween 20 solution as the solvent) was carried out. After air-drying, foliar spraying of cucumber powdery mildew spores (1×10^4 spores/ml, using 0.01% Tween 20 solution as the solvent) was carried out. After air-drying, cultivation was carried out in a greenhouse for 14 days, and then the control effect was evaluated.
Preventive value=100−(damage in the addition group/damage in the non-addition group)×100 (Equation 3)

lettuce (Green Wave) [4] = experiment: Example 9: High-temperature stress pot test (lettuce); details: for Fresh weight of above-ground part, Increase rate / Fresh weight of underground part, Increase rate: non-addition group = 100.0; for Fresh weight of above-ground part, Average / Fresh weight of underground part, Average: greenhouse 35° C., 20 days
Method: Immediately after the sowing, drenching treatment was carried out with 5 ml/well of a dilution of hesperidin prepared at a final concentration of 100 to 1000 ppm (using water as the solvent). A non-addition group was similarly subjected to drenching treatment using distilled water. High-temperature treatment was carried out by cultivation for 20 days in a greenhouse where the average daytime temperature was 35° C., and then the fresh weight of the above-ground part and the fresh weight of the underground part were evaluated. For each group, 15 to 20 measurement results were obtained (N=15 to 20).

Bent grass (Penncross) = experiment: Example 8: High-temperature stress pot test (bent grass); details: for Weight of above-ground part, Increase rate: non-addition group = 100.0; for Weight of above-ground part, Average: greenhouse average daytime 50° C., 7 days, fresh weight
Method: Bent grass (Penncross, Snow Brand Seed Co., Ltd.) was uniformly sown on pots filled with seedling culture soil (manufactured by Katakura & Co-op Agri Corporation; Kumiai seedling culture soil for gardening Genkikun No. 1) (soil volume, 100 ml), and cultivated for 14 to 20 days, followed by evenly cutting the above-ground part to a length of about 1 cm on the day before application of hesperidin. […] A non-addition group was similarly subjected to drenching treatment using distilled water. High-temperature treatment was carried out by cultivation in a glass greenhouse (average daytime temperature, […]) for 7 days, and then the fresh weight of the above-ground part was evaluated. For each group, three measurement results were obtained (N=3).

[5] = tested on: Cucumber (Hanjirofushinari); experiment: Example 13: Salt stress pot test (cucumber); details: foliar spraying 1 ppm (dilution of wettable powder formulation)
Method: Cucumber (Hanjirofushinari, Takii & Co., Ltd.) was sown on pots filled with seedling culture soil (manufactured by Katakura & Co-op Agri Corporation; Kumiai seedling culture soil for gardening Genkikun No. 1) (soil volume, 100 ml), and cultivated for 21 days. With a wettable powder formulation containing 1% hesperidin having the formulation composition shown in Table 11, a dilution was prepared such that the final concentration of hesperidin was 1 ppm. For each pot, 10 ml of the dilution was applied by foliar spraying. The cucumber was left to stand in a dilution whose final NaCl concentration was adjusted to 75 mM, and allowed to absorb water from the bottom. Cultivation was carried out in a greenhouse (20 to 25° C.) for 7 days, and then the fresh weight of the above-ground part was measured. For each group, six measurement results were obtained (N=6).

Phythophthora infestans = details: 14 days
Cabbage (Okina) [6] = experiment: Example 18: Growth-promoting effect (cabbage, seed dressing); details: for Increase/decrease of above-ground part / Increase/decrease of underground part: non-addition group = 100%; for Weight of above-ground part FW / Weight of underground part FW: 25° C., 28 days
Method: For cabbage (Okina, Takii & Co., Ltd.), seed dressing was carried out by application, at 5% seed weight, of a dilution of hesperidin prepared at a final concentration of 1 to 100 ppm (using water as the solvent). The dressed cabbage seeds were sown on a cell tray filled with seedling culture soil (manufactured by Nihon Hiryo Co., Ltd.; “Naebijin N100”). […]

Compound: COc1ccc([C@@H]2CC(=O)c3c(O)cc(O[C@@H]4O[C@H](CO[C@@H]5O[C@@H](C)[C@H](O)[C@@H](O)[C@H]5O)[C@@H](O)[C@H](O)[C@H]4O)cc3O2)cc1O [Hesperidin]
- Germination rate, Increase rate ([1]; 100 ppm): 215.8%
- Germination rate, Increase rate ([1]; 1000 ppm): 173.7%
- Germination rate, Average ([1]; then soaked at 100 ppm): 68.3%
- Germination rate, Average ([1]; then soaked at 1000 ppm): 55.0%
- Root length, Average (lettuce (Green Wave) [2]; Acid stress (pH 4), 0.1 ppm): 17.69 mm
- Root length, Increase rate (lettuce (Green Wave) [2]; Acid stress (pH 4), 0.1 ppm): 121.9%
- Root length, Average (lettuce (Green Wave) [2]; Acid stress (pH 4), 1 ppm): 18.03 mm
- Root length, Increase rate (lettuce (Green Wave) [2]; Acid stress (pH 4), 1 ppm): 124.3%
- Root length, Average (lettuce (Green Wave) [2]; Alkali stress (pH 9), 0.1 ppm): 17.55 mm
- Root length, Increase rate (lettuce (Green Wave) [2]; Alkali stress (pH 9), 0.1 ppm): 114.1%
- Root length, Average (lettuce (Green Wave) [2]; Alkali stress (pH 9), 1 ppm): 17.40 mm
- Root length, Increase rate (lettuce (Green Wave) [2]; Alkali stress (pH 9), 1 ppm): 113.1%
- Fresh weight of above-ground part, Increase rate (Cabbage (Okina) [3]; 100 ppm): 118.0%
- Fresh weight of underground part, Increase rate (Cabbage (Okina) [3]; 100 ppm): 130.6%
- Fresh weight of above-ground part, Increase rate (Cabbage (Okina) [3]; 1000 ppm): 97.1%
- Fresh weight of underground part, Increase rate (Cabbage (Okina) [3]; 1000 ppm): 103.2%
- Fresh weight of above-ground part, Average (Cabbage (Okina) [3]; drenching 100 ppm): 0.87 g
- Fresh weight of underground part, Average (Cabbage (Okina) [3]; drenching 100 ppm): 0.32 g
- Fresh weight of above-ground part, Average (Cabbage (Okina) [3]; drenching 1000 ppm): 0.72 g
- Fresh weight of underground part, Average (Cabbage (Okina) [3]; drenching 1000 ppm): 0.25 g
- Preventive value (Sphaerotheca cucurbitae; 10 ppm foliar spraying on cucumber): 5.0
- Preventive value (Sphaerotheca cucurbitae; 100 ppm foliar spraying on cucumber): 50.0
- Preventive value (Sphaerotheca cucurbitae; 1,000 ppm foliar spraying on cucumber): 68
- Fresh weight of above-ground part, Increase rate (lettuce (Green Wave) [4]; 100 ppm): 114.4%
- Fresh weight of underground part, Increase rate (lettuce (Green Wave) [4]; 100 ppm): 122.8%
- Fresh weight of above-ground part, Increase rate (lettuce (Green Wave) [4]; 1000 ppm): 109.1%
- Fresh weight of underground part, Increase rate (lettuce (Green Wave) [4]; 1000 ppm): 93.9%
- Fresh weight of above-ground part, Average (lettuce (Green Wave) [4]; drenching 100 ppm): 0.76 g
- Fresh weight of underground part, Average (lettuce (Green Wave) [4]; drenching 100 ppm): 0.29 g
- Fresh weight of above-ground part, Average (lettuce (Green Wave) [4]; drenching 1000 ppm): 0.72 g
- Fresh weight of underground part, Average (lettuce (Green Wave) [4]; drenching 1000 ppm): 0.22 g
- Weight of above-ground part, Increase rate (Bent grass (Penncross); 0.06 ppm): 151.7%
- Weight of above-ground part, Increase rate (Bent grass (Penncross); 0.6 ppm): 162.2%
- Weight of above-ground part, Average (Bent grass (Penncross); drenching 0.06 ppm): 3.3 g
- Weight of above-ground part, Average (Bent grass (Penncross); drenching 0.6 ppm): 3.6 g
- Death of the above-ground part (FIG. 1) (Bent grass (Penncross); groups subjected to drenching treatment (0.06 to 0.6 ppm), after high-temperature treatment): no death was found
- Fresh weight of above-ground part ([5]; Normal cultivation): 4.2 g
- Fresh weight of above-ground part ([5]; Salt treatment (75 mM NaCl, 7 days)): 3.6 g
- Preventive value (Phythophthora infestans; 10 ppm foliar spraying on tomato (Regina)): 37.4
- Preventive value (Phythophthora infestans; 30 ppm foliar spraying on tomato (Regina)): 86.0
- Preventive value (Phythophthora infestans; 100 ppm foliar spraying on tomato (Regina)): 92 and 92.1
- Increase/decrease of above-ground part (Cabbage (Okina) [6]; 1 ppm): 106%
- Increase/decrease of underground part (Cabbage (Okina) [6]; 1 ppm): 108%
- Increase/decrease of above-ground part (Cabbage (Okina) [6]; 10 ppm): 112%
- Increase/decrease of underground part (Cabbage (Okina) [6]; 10 ppm): 106%
- Increase/decrease of above-ground part (Cabbage (Okina) [6]; 100 ppm): 106%
- Increase/decrease of underground part (Cabbage (Okina) [6]; 100 ppm): 101%
- Weight of above-ground part FW (Cabbage (Okina) [6]; seed dressing 1 ppm): 54.0 mg/individual
- Weight of underground part FW (Cabbage (Okina) [6]; seed dressing 1 ppm): 15.6 mg/individual
- Weight of above-ground part FW (Cabbage (Okina) [6]; seed dressing 10 ppm): 57.2 mg/individual
- Weight of underground part FW (Cabbage (Okina) [6]; seed dressing 10 ppm): 15.3 mg/individual
- Weight of above-ground part FW (Cabbage (Okina) [6]; seed dressing 100 ppm): 53.9 mg/individual
- Weight of underground part FW (Cabbage (Okina) [6]; seed dressing 100 ppm): 14.6 mg/individual
- optimum concentration of hesperidin to be added for cabbage (Cabbage (Okina) [6]; seed dressing, growth promotion): lower than 100 ppm
